Test results as given in article PMC2248166, “Quantitative peptide binding motifs for 19 human and mouse MHC class I molecules derived using positional scanning combinatorial peptide libraries” (Immunome Research, 2008).
Where a SMILES comes first, the peptide text is derived from it.

Biological target: HLA B*1503 (Homo sapiens, UniProt P01889, A329T/A93T/A95T/C349S/D201E/D98Y/E187L/E204Q/K202T/N87E/Q94N/R155S/R180L/S121R/S35A/V306I/V36M/Y140S/Y91S)
Assay: biochemical
Format: binding

Structure (SMILES) | IC50 [nM]
CSCC[C@H](NC(=O)[C@H](CC(C)C)NC(=O)[C@H](CCSC)NC(=O)[C@@H](N)Cc1ccccc1)C(=O)N[C@@H](CCC(=O)O)C(=O)N[C@H](C(=O)N[C@@H](CCSC)C(=O)N[C@@H](Cc1ccccc1)C(=O)N[C@@H](Cc1ccccc1)C(=O)O)[C@@H](C)O [3102.1089] (H-FMLMETMFF-OH) | 0.19
CC[C@H](C)[C@H](NC(=O)[C@@H](NC(=O)[C@@H](NC(=O)[C@H](C)NC(=O)[C@H](CCSC)NC(=O)[C@H](Cc1ccc(O)cc1)NC(=O)[C@H](C)NC(=O)[C@@H](N)CCCNC(=N)N)[C@@H](C)O)[C@@H](C)O)C(=O)N[C@@H](CC(C)C)C(=O)O [3102.1091] (H-RAYMATTIL-OH) | 18
CSCC[C@H](NC(=O)[C@H](C)NC(=O)[C@H](CC(C)C)NC(=O)[C@H](CO)NC(=O)[C@H](CCCCN)NC(=O)[C@@H](N)CCSC)C(=O)N[C@H](C(=O)N[C@@H](C)C(=O)N[C@@H](Cc1ccccc1)C(=O)O)[C@@H](C)O [3102.1092] (H-MKSLAMTAF-OH) | 0.18
CC[C@H](C)[C@H](N)C(=O)N[C@@H](CCSC)C(=O)N[C@@H](C)C(=O)N[C@@H](CC(C)C)C(=O)N[C@H](C(=O)N[C@H](C(=O)N[C@@H](CO)C(=O)N[C@H](C(=O)N[C@@H](Cc1ccccc1)C(=O)O)[C@@H](C)CC)C(C)C)[C@@H](C)CC [3102.1093] (H-IMALIVSIF-OH) | 4.5
CC[C@H](C)[C@H](NC(=O)[C@@H](NC(=O)[C@@H]1CCCN1C(=O)[C@H](CCC(=O)O)NC(=O)[C@H](CO)NC(=O)[C@H](CO)NC(=O)[C@H](CCSC)NC(=O)[C@@H](N)Cc1ccc(O)cc1)[C@@H](C)CC)C(=O)N[C@@H](Cc1ccccc1)C(=O)O [3102.1094] (H-YMSSEPIIF-OH) | 0.3
CC[C@H](C)[C@H](NC(=O)[C@@H](NC(=O)[C@H](CC(N)=O)NC(=O)[C@H](CCC(=O)O)NC(=O)[C@@H]1CCCN1C(=O)[C@H](CO)NC(=O)[C@H](C)NC(=O)[C@H](CCSC)NC(=O)[C@@H](N)Cc1ccccc1)C(C)C)C(=O)O [3102.1095] (H-FMASPENVI-OH) | 6.4
CC[C@H](C)[C@H](NC(=O)[C@@H](NC(=O)CNC(=O)[C@H](CCC(=O)O)NC(=O)[C@@H]1CCCN1C(=O)[C@H](CCC(N)=O)NC(=O)[C@@H](N)CCCCN)C(C)C)C(=O)N[C@@H](CC(C)C)C(=O)N[C@@H](Cc1ccccc1)C(=O)O [3102.1100] (H-KQPEGVILF-OH) | 3.7
C[C@@H](O)[C@H](NC(=O)[C@H](CO)NC(=O)CNC(=O)[C@H](CCCNC(=N)N)NC(=O)[C@H](CC(N)=O)NC(=O)CNC(=O)[C@@H](N)CO)C(=O)N[C@@H](CO)C(=O)N[C@@H](Cc1ccccc1)C(=O)O [3102.1101] (H-SGNRGSTSF-OH) | 25
CC[C@H](C)[C@H](NC(=O)[C@H](CCSC)NC(=O)[C@H](CC(=O)O)NC(=O)[C@H](CC(N)=O)NC(=O)[C@@H](NC(=O)[C@H](CCSC)NC(=O)[C@H](CCC(N)=O)NC(=O)[C@@H](N)CCCNC(=N)N)C(C)C)C(=O)N[C@@H](Cc1ccccc1)C(=O)O [3102.1102] (H-RQMVNDMIF-OH) | 1.3
N=C(N)NCCC[C@H](NC(=O)[C@H](CC(=O)O)NC(=O)[C@H](CCCCN)NC(=O)[C@H](CCC(=O)O)NC(=O)[C@H](Cc1ccccc1)NC(=O)[C@H](CCC(N)=O)NC(=O)[C@@H](N)CCCNC(=N)N)C(=O)N[C@@H](CO)C(=O)N[C@@H](Cc1ccccc1)C(=O)O [3102.1103] (H-RQFEKDRSF-OH) | 0.14
CC[C@H](C)[C@H](N)C(=O)N[C@@H](CCC(N)=O)C(=O)N[C@H](C(=O)N[C@@H](CC(C)C)C(=O)N[C@@H](CC(N)=O)C(=O)NCC(=O)N[C@@H](CCCCN)C(=O)N[C@@H](Cc1c[nH]cn1)C(=O)N[C@@H](Cc1ccccc1)C(=O)O)[C@@H](C)O [3102.1105] (H-IQTLNGKHF-OH) | 11
CC[C@H](C)[C@H](NC(=O)[C@@H](NC(=O)[C@H](CCC(=O)O)NC(=O)[C@H](CCC(=O)O)NC(=O)[C@H](CO)NC(=O)[C@H](CCSC)NC(=O)[C@@H](N)CC(C)C)[C@@H](C)O)C(=O)N[C@@H](CC(=O)O)C(=O)N[C@@H](Cc1ccccc1)C(=O)O [3102.1106] (H-LMSEETIDF-OH) | 12
CC[C@H](C)[C@H](NC(=O)[C@@H](NC(=O)[C@H](CCC(=O)O)NC(=O)[C@H](Cc1ccccc1)NC(=O)[C@H](Cc1ccccc1)NC(=O)[C@H](CCCCN)NC(=O)[C@@H](N)CC(N)=O)C(C)C)C(=O)N[C@@H](Cc1ccccc1)C(=O)N[C@@H](Cc1ccccc1)C(=O)O [3102.1109] (H-NKFFEVIFF-OH) | 19
CC(C)C[C@H](NC(=O)[C@H](Cc1ccc(O)cc1)NC(=O)[C@H](CCC(N)=O)NC(=O)[C@H](CO)NC(=O)[C@H](CCCNC(=N)N)NC(=O)[C@H](CC(N)=O)NC(=O)[C@H](CCC(N)=O)NC(=O)[C@@H](N)CCCNC(=N)N)C(=O)N[C@@H](Cc1ccccc1)C(=O)O [3102.1112] (H-RQNRSQYLF-OH) | 0.14
CC[C@H](C)[C@H](NC(=O)CNC(=O)[C@H](CC(C)C)NC(=O)[C@H](CCSC)NC(=O)[C@H](CO)NC(=O)[C@@H](N)Cc1ccccc1)C(=O)N[C@@H](Cc1c[nH]c2ccccc12)C(=O)N[C@@H](Cc1ccccc1)C(=O)N[C@@H](Cc1ccccc1)C(=O)O [3102.1113] (H-FSMLGIWFF-OH) | 28
CC(C)C[C@H](NC(=O)[C@H](Cc1ccccc1)NC(=O)[C@H](CO)NC(=O)[C@@H](N)CC(C)C)C(=O)N[C@@H](CO)C(=O)N[C@@H](CCCNC(=N)N)C(=O)N[C@H](C(=O)N[C@@H](Cc1ccccc1)C(=O)N[C@@H](Cc1ccccc1)C(=O)O)C(C)C [3102.1115] (H-LSFLSRVFF-OH) | 0.33
CC[C@H](C)[C@H](NC(=O)[C@H](CO)NC(=O)[C@@H](NC(=O)[C@H](CCC(N)=O)NC(=O)[C@H](CO)NC(=O)[C@H](CC(N)=O)NC(=O)[C@H](Cc1ccccc1)NC(=O)[C@H](CCCCN)NC(=O)[C@@H](N)Cc1ccccc1)C(C)C)C(=O)O [3102.1116] (H-FKFNSQVSI-OH) | 1.2
CC(C)C[C@H](NC(=O)[C@H](CO)NC(=O)[C@H](CS)NC(=O)[C@@H](NC(=O)[C@H](Cc1ccccc1)NC(=O)[C@H](CCC(N)=O)NC(=O)[C@@H](N)CO)[C@@H](C)O)C(=O)N[C@@H](C)C(=O)N[C@H](C(=O)O)C(C)C [3102.1117] (H-SQFTCSLAV-OH) | 1.5
CC(C)[C@H](N)C(=O)N[C@@H](CCC(=O)O)C(=O)N[C@H](C(=O)N[C@@H](CCC(=O)O)C(=O)N1CCC[C@H]1C(=O)NCC(=O)N[C@@H](CO)C(=O)N[C@@H](CO)C(=O)N[C@@H](Cc1ccccc1)C(=O)O)C(C)C [3102.1119] (H-VEVEPGSSF-OH) | 1.7
CC[C@H](C)[C@H](N)C(=O)N[C@@H](CCCCN)C(=O)N[C@@H](Cc1ccc(O)cc1)C(=O)N[C@@H](CCSC)C(=O)N[C@H](C(=O)NCC(=O)N[C@@H](CC(N)=O)C(=O)N[C@@H](Cc1ccccc1)C(=O)N[C@@H](CCSC)C(=O)O)[C@@H](C)CC [3102.1120] (H-IKYMIGNFM-OH) | 2.2
CSCC[C@H](NC(=O)[C@H](CCCCN)NC(=O)[C@@H](N)CCCCN)C(=O)N[C@H](C(=O)N[C@@H](CS)C(=O)NCC(=O)N[C@@H](CCC(N)=O)C(=O)N1CCC[C@H]1C(=O)N[C@@H](CC(C)C)C(=O)O)[C@@H](C)O [3102.1121] (H-KKMTCGQPL-OH) | 1.5
CC(C)[C@H](N)C(=O)N[C@@H](CCCCN)C(=O)N[C@H](C(=O)N[C@@H](CCCCN)C(=O)N[C@@H](CCC(=O)O)C(=O)N[C@@H](CCC(=O)O)C(=O)N[C@@H](CC(N)=O)C(=O)N[C@H](C(=O)N[C@@H](Cc1ccccc1)C(=O)O)[C@@H](C)O)C(C)C [3102.1122] (H-VKVKEENTF-OH) | 0.42
